Where no end group is shown, it is not given here.
Legend:
[1] = system: Wnt/β-catenin signaling pathway (TCF/LEF Responsive Luciferase Reporter HEK293A cell line); test: Effect of enhancing Wnt/β-catenin signaling, TCF/LEF responsive luciferase reporter assay; assay type: cell-based; settings: 10 μg/mL, 24 hours, WRHEK293A cells, non-treated control = 100%
Protocol: To determine activation of the Wnt/β-catenin signaling pathway, TCF/LEF Responsive Luciferase Reporter HEK293A stabilized cell line (Wnt Reporter HEK293A cell; WRHEK293A) was used in this test. The stabilized cell line was maintained through the subculture using MEM (Corning, USA) and fetal bovine serum (Gibco BRL, Gaithersburg, MD, USA). To carry out a transcriptional activity test, 30,000 cells were seeded per well in a 96-well plate and cultured in an incubator at 37° C. for 24 hours. Then, according to the present disclosure, treatment with each of escin, 27-deoxyactein, lysionotin, nitidine chloride, lanosterol, engeletin, specnuezhenide, praeruptorin B, rotundic acid, sesamoside, polygalacin D, momordin Ic, valechlorine, tussilagone, periplocin, polyphyllin VII and platycodin D2 was carried out as shown in the following Table 1. After culturing for 24 hours, a luciferase assay system (Promega) was used to perform reporter analysis. The analysis was carried out by the test method provided by the production company, and luminescence was determined by using Victor multiwall plate reader (PerkinElmer, USA). To determine cytotoxicity caused by the treatment, development of fluorescence of GFP as an internal control was determined. The luminescence value derived from the reaction with luciferase was divided by the GFP fluorescence value, and the values of the test group were calculated by taking the value of the non-treated control as 100% and expressed in the unit of percentage (%) (Table 1).

[2] = system: B-16 mouse melanoma cells; test: Determination of effect of producing melanin; assay type: cell-based; settings: B-16 melanoma cells; for Melanin synthesis (%): non-treated control = 100%
Protocol: In this test, the compounds in Test Example 1 showing an effect of enhancing the Wnt signaling were added to the culture medium of mouse-derived melanoma cells (B-16 mouse melanoma cells) to determine the effect of producing melanin in a cellular level (Lotan R., Lotan D. Cancer Res. 40: 3345-3350, 1980). Before the test, B-16 melanoma cells were evaluated in terms of toxicity, and the non-toxic concentration was selected to carry out evaluation of melanin production. B-16 melanoma cells were subcultured in DMEM (Gibco BRL., Gaithersburg, MD, USA) containing 10% FBS. Then, seeding to a 100 mm cell culture dish was performed to synthesize and extract melanin, and the cells were treated with each compound when the confluency was 70%. The compound was used for treating the cell culture at a concentration of 10 μg/mL. In addition, α-melanocyte stimulating hormone (α-MSH) was used as control, added to the culture medium to 10 nM to treat B-16 melanoma cells, and cultured for 48 hours. Then, the cells were treated with trypsin to strip them off the culture container, and centrifugal separation was carried out to extract melanin. After that, 1 mL of sodium hydroxide (1 N concentration) solution was added to the stripped cells and the mixture was boiled for 10 minutes so that melanin may be dissolved. The amount of melanin production was determined by measuring the absorbance at 400 nm by using a spectrophotometer. The amount of melanin was quantified in the unit of μg/mL by using a standard absorbance curve as a function of melanin concentration. The value of the non-treated control was taken as 100%, and the values of the test group were calculated as a percentage (%) on the basis thereof (Table 2).

Compound	Wnt signaling activation capability (%) (Luminescence/GFP) [1]	Melanin synthesis (%) ([2]; 10 μg/mL)	Melanin synthesis (%) ([2]; 10 nM, 48 hours)	melanin synthesis (FIG. 1) [2]
C[C@@H]1O[C@@H](O[C@H]2[C@H](OC(=O)[C@]34CCC(C)(C)C[C@H]3C3=CC[C@@H]5[C@@]6(C)C[C@H](O)[C@H](O[C@@H]7O[C@H](CO)[C@@H](O)[C@H](O[C@@H]8O[C@H](CO)[C@@H](O)[C@H](O)[C@H]8O)[C@H]7O)C(CO)(CO)[C@@H]6CC[C@@]5(C)[C@]3(C)C[C@H]4O)OC[C@H](O)[C@@H]2O)[C@H](O)[C@H](O)[C@H]1O[C@@H]1OC[C@@H](O)[C@H](O[C@@H]2OC[C@](O)(CO)[C@H]2O)[C@H]1O [Platycodin D2, platycodin D2]	216%	119%		
polyphyllin VII	275%	127%		
CC(=O)O[C@@H]1C[C@@]23C[C@@]24CC[C@H](O[C@@H]2OC[C@@H](O)[C@H](O)[C@H]2O)C(C)(C)[C@@H]4CC[C@H]3[C@]2(C)C[C@@H]3O[C@]4(C[C@@H](C)[C@@H]3[C@@]12C)OC[C@@]1(C)O[C@@H]41 [27-Deoxyactein, 27-deoxyactein]	1717%	168%		
CC1(C)CC[C@]2(C(=O)O)CC[C@]3(C)C(=CC[C@@H]4[C@@]5(C)CC[C@H](O[C@@H]6O[C@H](C(=O)O)[C@@H](O)[C@H](O[C@@H]7OC[C@@H](O)[C@H](O)[C@H]7O)[C@H]6O)C(C)(C)[C@@H]5CC[C@]43C)[C@@H]2C1 [Momordin Ic, momordin Ic]	370%	131%		
valechlorine	218%	139%		
CC(C)=CCC[C@@H](C)[C@H]1CC[C@@]2(C)C3=C(CC[C@]12C)[C@@]1(C)CC[C@H](O)C(C)(C)[C@@H]1CC3 [Lanosterol, lanosterol]	194%	110%		
C/C=C(/C)C(=O)O[C@H]1c2c(ccc3ccc(=O)oc23)OC(C)(C)[C@H]1OC(=O)/C(C)=C\C [Praeruptorin B, praeruptorin B]	241%	136%		
CO[C@H]1C[C@H](O[C@H]2CC[C@]3(C)[C@H]4CC[C@]5(C)[C@@H](C6=CC(=O)OC6)CC[C@]5(O)[C@@H]4CC[C@]3(O)C2)O[C@H](C)[C@H]1O[C@@H]1O[C@H](CO)[C@@H](O)[C@H](O)[C@H]1O [Periplocin, periplocin]	244%	128%		
C[C@@H]1O[C@@H](O[C@H]2[C@H](OC(=O)[C@]34CCC(C)(C)C[C@H]3C3=CC[C@@H]5[C@@]6(C)C[C@H](O)[C@H](O[C@@H]7O[C@H](CO)[C@@H](O)[C@H](O)[C@H]7O)[C@@](C)(CO)[C@@H]6CC[C@@]5(C)[C@]3(C)C[C@H]4O)OC[C@H](O)[C@@H]2O)[C@H](O)[C@H](O)[C@H]1O[C@@H]1OC[C@@H](O)[C@H](O[C@@H]2OC[C@](O)(CO)[C@H]2O)[C@H]1O [Polygalacin D, polygalacin D]	292%	114%		
CC1OC(OC2C(=O)c3c(O)cc(O)cc3OC2c2ccc(O)cc2)C(O)C(O)C1O (stereo not drawn) [Engeletin, engeletin]	223%	121%		
COc1cc2c[n+](C)c3c4cc5c(cc4ccc3c2cc1OC)OCO5 [Nitidine chloride, nitidine chloride]	274%	125%		
α-melanocyte stimulating hormone (SYSMEHFRWGKPV; ends and bridges not checked; UniProt P01189 138-150, looked up) [α-MSH, α-melanocyte stimulating hormone used as control at 10 nM, reference compound]			135%	
COc1ccc(-c2cc(=O)c3c(O)c(OC)c(O)c(OC)c3o2)cc1 [Lysionotin, lysionotin]	196%	135%		
CC=C1[C@H](O[C@@H]2O[C@H](CO)[C@@H](O)[C@H](O)[C@H]2O)OC=C(C(=O)OC)[C@H]1CC(=O)OC[C@H]1O[C@@H](OCCc2ccc(O)cc2)[C@H](O)[C@@H](O)[C@@H]1O (stereo in doubt) [Specnuezhenide, specnuezhenide]	243%	106%		
C[C@@H]1CC[C@]2(C(=O)O)CC[C@]3(C)C(=CC[C@@H]4[C@@]5(C)CC[C@H](O)[C@@](C)(CO)[C@@H]5CC[C@]43C)[C@@H]2[C@]1(C)O [Rotunic acid, rotundic acid]	296%	144%		
COC(=O)C1=CO[C@@H](O[C@@H]2O[C@H](CO)[C@@H](O)[C@H](O)[C@H]2O)[C@@H]2[C@@]3(C)O[C@H]3[C@@H](O)[C@]12O [Sesamoside, sesamoside]	275%	112%		
escin	1098%	154%		increase in melanin synthesis
C=C1[C@H](OC(=O)/C=C(\C)CC)C[C@@H](C(C)C)[C@@H]2[C@@H]([C@@H](C)OC(C)=O)C(=O)C[C@@H]12 [Tussilagone, tussilagone]	195%	136%		

— US12605323B2, “Composition for inhibiting hair graying, and use thereof” (LG HOUSEHOLD & HEALTH CARE LTD., priority 2020, dated 2026)
